The results in this text go back to US11596615B2, “Compositions and methods for treatment of insulin resistance” (Temple University—Of The Commonwealth System Of Higher …, priority 2016, dated 2023).

A short description of series [1]: Intravenous and oral pharmacokinetic study in mice. The note with it: for VSS: dihydrochloride. Type of series: in vivo. The protocol: A pharmacokinetic study was conducted with mice (Charles river) (N=3). The animals had free access to water and standard laboratory chow under a controlled 12 hour light-dark cycle. After at least one week of an acclimation period, the mice were administrated a dose of 5 mg/kg of the title compound ((S))-2-amino-6-((3-aminopropyl)amino)hexanoic acid dihydrochloride) intravenously or 10 mg/kg orally. For both intravenous and oral administration, the compound was dissolved in saline. After intravenous administration, blood samples were collected at 10 min, 30 min, 1, 2, 4, 8 and 24 hours. For oral gavage, blood samples were collected at 15 min, 30 min 1, 2, 4, 8 and 24 hours. The blood samples were collected in polythene tubes with heparin sodium 100 unit/mL and centrifuged at 6000×g for 10 min to obtain plasma, which was stored at −20° C. until analysis.
The title compound concentration in mouse plasma was quantitated using an LC/MS/MS (API 4000, AB SCIEX). Briefly, 50 μl mouse plasma was added to 100 μl acetonitrile with internal standard (Diltiazem 10 ng/ml). The mixture was vortexed and centrifuged, and 5 μl supernatant was injected into LC/MS/MS for analysis. The separation was performed on a Waters C18 column (2.1×50 mm, […] particle size). The mobile phase consisted of 0.2% pentafluoropropionic acid in water:acetonitrile by gradient elution. A Sciex API 4000 mass spectroscopy system equipped with an electrospray source in the positive-ion multiple reaction monitoring (MRM) mode was used for detection. The MRM transitions monitored for the title compound and diltiazem were m/z 204.4/84.2 and m/z 415/178, respectively. The retention time is 12.5 min for (S)-2-amino-6-((3-aminopropyl)amino)hexanoic acid and 14 min for diltiazem. The quantitation ranged from 25 to 1000 ng/ml.

A further series has as its system 3T3-L1 adipocytes. Nature of the series: 13C6-glucose uptake in 3T3-L1 adipocytes exposed to 4HNE/H2O2 (Example 7). The series is classed as cell-based, mouse. The note with it: 0.1, 1, 10 and 100 μM compound for 2 h, then 4HNE/H2O2 100 μM each 1 h; FIG. 5; dihydrochloride. How it is done:
3T3-L1 Mouse Embryonic Fibroblasts, ATCC® CL-173™ were differentiated to adipocytes using chemically-induced differentiation according to the ATCC guidelines. Differentiated 3T3-L1 Adipocyte 4e^6 cell were incubated overnight in glucose free media (RPMI ref. #11879 Gibco) containing 1% dialyzed fetal bovine serum (ref. #26400 Gibco) at 37° C. Cells were washed with and incubated for 1 h with glucose free media before compound exposure. Cells were incubated with and without increasing concentration (0.1, 1, 10 and 100 μM) of (S)-2-amino-6-((3-aminopropyl)amino)hexanoic acid dihydrochloride (title compound) for 2 h at 37° C., followed by 3 wash steps in glucose free phosphate buffer. […]
Cells were washed with PBS, followed by addition of glucose free DMEM medium containing 20 mM of ^13C6 glucose, 10 mM, 2-fluorodeoxyglucose (2-FDG) and insulin 10 pM (Sigma I5500) incubated for 1 hour at 37° C. 2-FDG is an inhibitor of glucose metabolism, thus preventing glucose breakdown and allowing its accumulation to further be measure and quantified. […]
The detection of the ^13C6 glucose, was carried out using a Waters Xevo™ triple quadrupole tandem mass spectrometer (Waters Corp., Manchester, UK). […] Chromatographic and mass spectrum data were collected and analyzed with Waters MassLynx v4.1 software. […]

SMILES strings stand for the structures. Entries after “also recorded” stand apart in the source; their conditions may differ. Structures can show the parent of a compound that is named as a salt.

As to `NCCCNCCCC[C@H](N)C(=O)O` [APL, (S)-2-amino-6-((3-aminopropyl)amino)hexanoic acid dihydrochloride], the VSS in series [1] (IV, 5 mg/kg) is given as 0.4 L/kg; in series [1] (PO, 10 mg/kg, listed as (S)-2-amino-6-((3-aminopropyl)amino)hexanoic acid dihydrochloride), 2.12 L/kg; in series [1] (PO, 10 mg/kg, listed as (S)-2-amino-6-((3-aminopropyl)amino)hexanoic acid), 2.1 L/kg. The AUCtot is given as 4.72 μg*hr/m in series [1] (IV, 5 mg/kg, plasma) and 10.45 μg*hr/m in series [1] (PO, 10 mg/kg, plasma). The molecule further registered a CL in series [1] (PO, 10 mg/kg) of 0.285 L/h. Moreover, the Cmax in series [1] (mouse, IV, 5 mg/kg, plasma) came to 8360 ng/mL; in series [1] (mouse, PO, 10 mg/kg, plasma), 1440 ng/mL. The molecule also had a clearance in series [1] (mouse, plasma, IV, 5 mg/kg) of 5.17 mL/min. In addition, the half-life in series [1] (mouse, plasma, IV, 5 mg/kg) was 2.53 h; in series [1] (mouse, plasma, PO, 10 mg/kg) it was 3.25 h. Further, the Tmax in series [1] (mouse, plasma, PO, 10 mg/kg) came to 3.33 h. Besides, the Vd in series [1] (mouse, plasma, iv, 5 mg/kg, IV, 5 mg/kg, read-out: VSS) was found to be 0.414 L/kg. Further, the bioavailability in series [1] (mouse, plasma, oral, 10 mg/kg, PO 10 mg/kg vs IV 5 mg/kg) was around 100%. In the series with 3T3-L1 adipocytes, the “glucose uptake impairment induced by 4-HNE and H2O2” value is “able to prevent the glucose uptake impairment induced by 4-HNE and H2O2, in a dose-dependent fashion; also recorded: prevented glucose uptake-impairing effect of 4-HNE and H2O2, in a dose-dependent fashion”.

The term Cmax denotes the maximum level reached in the sampled fluid or tissue. By half-life is commonly meant how long it takes for the measured level to halve. The Tmax is the time at which the peak concentration occurs. Broadly, the bioavailability is the share of a dose that reaches the circulation, judged against a reference dose that is usually intravenous. Lower therefore signals little systemic uptake.
